Data on four molecules can be found in patent US5690904A, “Diagnostic radiopharmaceutical compounds (That)” (priority 1995, dated 1997).

The conditions of series [1]: technetium complex; cited from earlier work.
For series [2] the following is noted: technetium complex, monkey; cited from earlier work.
A short description of series [3]: Biodistribution of 99mTc labelled complexes in rats (Tc brain bioassay, Example 64, Table I). Format: in vivo, Female Sprague-Dawley rats. To be noted: rat, i.v. tail vein. The procedure: Distribution of the ^99m Tc labelled compounds was evaluated in rats. Female Sprague-Dawley rats weighing 140 to 220 g (average 170 g) were anaesthetised with sodium pentobarbital and were injected in a tail vein with 0.05 to 10mCi of the ^99m Tc labelled complex in a volume of 0.2 to 0.5 ml. At least two rats were injected for each time point.
The animals were sacrificed at 5 and 30 minutes post injection and selected organs were removed; the tails were discarded to avoid interference from the injection site. The radioactivity in each organ was measured at a standard geometry with a […] sodium iodide scintillation counter adjusted for the 140 KeV emission of ^99m Tc. The organs were also weighed to one hundredth of a gram and the activity was calculated as a percent of administered dose per gram. The important determinations are the amount of activity in the brain and the brain:blood ratio.

The nature of series [4]: Electrophoresis of 99mTc complexes (charge). It counts as physicochemical. To be noted: 0.05M NaH2PO4, pH 4.5, 3000 volts, 30 min. An excerpt:
After labelling, and if required, the resultant ^99m Tc chelate complexes can be purified by passing through a C-18 Sep Pak column.

Each structure is given as a SMILES string.

For the molecule `CC(C)(S)CNCc1ccccc1NCC(C)(C)S` [U-BAT], in series [1], the “brain uptake / crossing of blood-brain barrier” value is “exhibit brain uptake” and the “retention of brain activity” value is given as “no retention”.

As to `CCOC(=O)[C@H](CS)NCCN[C@@H](CS)C(=O)OCC` [ECD], in series [2], the brain retention result was “retention” and the brain uptake result is recorded as “good”.

As to `CC(C)(S)CNCCNCC(C)(C)S` [BAT], in series [1], the “brain uptake / crossing of blood-brain barrier” value is recorded as “can cross the blood-brain barrier (BBB)” and the “retention of brain activity” value is “fails to show retention”.

With `C[SH]1c2ccccc2[N]2CC[N]3C(=O)C(C)(C)[S][Tc]321=[O]` (stereo not drawn) [Example T712, ^99m Tc complex of N[2-(((methyl-2-mercapto)propionyl)amino)ethyl]-2-methylthio aniline], in series [3] (5 min post injection), the Brain % dose was found to be 1.69 % dose, the “Brain:blood” value is recorded as 1.04, the Heart % dose is listed as 0.61 % dose and the “Heart:blood” value is 1.07. In addition, in series [3] (30 min post injection), the Brain % dose amounted to 1.73 % dose, the “Brain:blood” value was 1.13, the Heart % dose amounted to 0.53 % dose and the “Heart:blood” value turned out to be 0.74. For the same molecule, in series [4], the “Electrophoresis (charge)” value is on record as “neutral”.
